For six compounds, IC50, Km and Ki results are on record in publication PMC5114424, “The Role of Folate Transport in Antifolate Drug Action in Trypanosoma brucei” (The Journal of Biological Chemistry, 2016).

Holding throughout (type): cell-based, Trypanosoma brucei brucei
Assay [1] concerns T1, FT1–3 (TbFT1–3).
T1 construct: native transporters in intact bloodstream-form trypanosomes; 12 predicted transmembrane helices; uptake assigned by RNAi knockdown of all three
The assay is described as follows: inhibition of [3H]folate uptake, whole cells. Conditions: 2.0 μM folate ([S] ≅ Km); pH 7.3; read-out: IC50 against folate. An excerpt: inhibition of [3H]folate uptake, whole cells on FT1–3 (TbFT1–3)

In assay [2] the test system is T1, FT1–3 (TbFT1–3). The assay is described as follows: [3H]folic acid uptake, whole cells. Particulars: transport, 23 °C, pH 7.3; labelled compound. An excerpt:
[3H]folic acid uptake, whole cells on FT1–3 (TbFT1–3) | Uptake rates for folate obeyed simple Michaelis-Menten kinetics (Fig. 2D) yielding a Km of […]

The subject of assay [3] is T1, FT1–3 (TbFT1–3). Kind of assay: inhibition of [3H]MTX uptake, whole cells, Lineweaver-Burk / global fit. Conditions: competitive with MTX; folate 0, 0.5, 1 μM; pH 7.3.
Assay [4] has as its system T1, FT1–3 (TbFT1–3). Kind of assay: inhibition of [3H]MTX uptake, whole cells. Conditions: 13 μM MTX ([S] ≅ Km); pH 7.3; read-out: IC50 against MTX. The text has this: inhibition of [3H]MTX uptake, whole cells on FT1–3 (TbFT1–3)
The subject of assay [5] is T1, FT1–3 (TbFT1–3). The assay is described as follows: inhibition of [3H]folate uptake, whole cells, Lineweaver-Burk / global fit. Particulars: competitive with folate; MTX 0, 0.5, 1 μM; pH 7.3.
The test system of assay [6] is T1, FT1–3 (TbFT1–3). Kind of assay: [3H]MTX uptake, whole cells. Particulars: transport, 23 °C, pH 7.3; labelled compound.

The term IC50 denotes the point on the concentration scale where inhibition reaches its midpoint. By Km is commonly meant the substrate concentration at which the rate is half of its maximum. Usually Ki stands for the equilibrium dissociation constant of an inhibitor or competing ligand from its target. The low end stands for higher affinity, the high end for lower affinity.

Consider `CN1c2c(nc(N)[nH]c2=O)NC[C@@H]1CNc1ccc(C(=O)N[C@@H](CCC(=O)O)C(=O)O)cc1` [5-methyl-THF], for which, in assay [1], the 50% inhibitory concentration (IC50) was 6300 ± 1000 nM.
Turning to `Nc1nc2ncc(CNc3ccc(C(=O)N[C@@H](CCC(=O)O)C(=O)O)cc3)nc2c(=O)[nH]1` [folate], the Km in assay [2] was 2.04 ± 0.53 µM. This compound displayed a Ki in assay [3] of 940 ± 210 nM. The IC50 in assay [4] was determined as 1900 ± 400 nM.
Turning to `Nc1nc(=O)c2c(CCc3ccc(C(=O)N[C@@H](CCC(=O)O)C(=O)O)cc3)c[nH]c2[nH]1` [pemetrexed], the IC50 in assay [1] was 3200 ± 300 nM.
Regarding `Cc1nc2ccc(CN(C)c3ccc(C(=O)N[C@@H](CCC(=O)O)C(=O)O)s3)cc2c(=O)[nH]1` [raltitrexed], the IC50 in assay [1] amounted to 1800 ± 400 nM.
On to `Nc1ccc(C(=O)N[C@@H](CCC(=O)O)C(=O)O)cc1` [pABA-Glu], for which the IC50 in assay [1] was determined as 30800 ± 3700 nM.
For `CN(Cc1cnc2nc(N)nc(N)c2n1)c1ccc(C(=O)N[C@@H](CCC(=O)O)C(=O)O)cc1` [methotrexate], the IC50 in assay [1] was 3400 ± 400 nM. In assay [5], this compound yielded a Ki of 480 ± 70 nM. Also, in assay [6], the Michaelis constant (Km) was found to be 18.4 ± 2.2 µM.
